ChEMBL document CHEMBL2040718, “Synthesis of friedelan triterpenoid analogs with DNA topoisomerase IIα inhibitory activity and their molecular docking studies” (Eur J Med Chem, 2012)
The source made the active and inactive calls.

Tests used:
[1] = target: DNA topoisomerase 2-alpha (Homo sapiens) (UniProt P11388); assay: Inhibition of human topoisomerase 2alpha-mediated relaxation of supercoiled pBR322 plasmid DNA after 15 mins using ethidium bromide staining by agarose-gel electrophoresis
[2] = target: DNA topoisomerase 2-alpha (Homo sapiens) (UniProt P11388); assay: Complete inhibition of human topoisomerase 2alpha-mediated relaxation of supercoiled pBR322 plasmid DNA at 100 uM after 15 mins using ethidium bromide staining by agarose-gel electrophoresis
[3] = target: DNA topoisomerase 2-alpha (Homo sapiens) (UniProt P11388); assay: Complete inhibition of human topoisomerase 2alpha-mediated relaxation of supercoiled pBR322 plasmid DNA at 50 uM after 15 mins using ethidium bromide staining by agarose-gel electrophoresis
[4] = target: DNA topoisomerase 2-alpha (Homo sapiens) (UniProt P11388); assay: Partial inhibition of human topoisomerase 2alpha-mediated relaxation of supercoiled pBR322 plasmid DNA at 25 uM after 15 mins using ethidium bromide staining by agarose-gel electrophoresis

Measured: inhibition

Sequence of DNA topoisomerase 2-alpha (Homo sapiens) (P11388 whole entry): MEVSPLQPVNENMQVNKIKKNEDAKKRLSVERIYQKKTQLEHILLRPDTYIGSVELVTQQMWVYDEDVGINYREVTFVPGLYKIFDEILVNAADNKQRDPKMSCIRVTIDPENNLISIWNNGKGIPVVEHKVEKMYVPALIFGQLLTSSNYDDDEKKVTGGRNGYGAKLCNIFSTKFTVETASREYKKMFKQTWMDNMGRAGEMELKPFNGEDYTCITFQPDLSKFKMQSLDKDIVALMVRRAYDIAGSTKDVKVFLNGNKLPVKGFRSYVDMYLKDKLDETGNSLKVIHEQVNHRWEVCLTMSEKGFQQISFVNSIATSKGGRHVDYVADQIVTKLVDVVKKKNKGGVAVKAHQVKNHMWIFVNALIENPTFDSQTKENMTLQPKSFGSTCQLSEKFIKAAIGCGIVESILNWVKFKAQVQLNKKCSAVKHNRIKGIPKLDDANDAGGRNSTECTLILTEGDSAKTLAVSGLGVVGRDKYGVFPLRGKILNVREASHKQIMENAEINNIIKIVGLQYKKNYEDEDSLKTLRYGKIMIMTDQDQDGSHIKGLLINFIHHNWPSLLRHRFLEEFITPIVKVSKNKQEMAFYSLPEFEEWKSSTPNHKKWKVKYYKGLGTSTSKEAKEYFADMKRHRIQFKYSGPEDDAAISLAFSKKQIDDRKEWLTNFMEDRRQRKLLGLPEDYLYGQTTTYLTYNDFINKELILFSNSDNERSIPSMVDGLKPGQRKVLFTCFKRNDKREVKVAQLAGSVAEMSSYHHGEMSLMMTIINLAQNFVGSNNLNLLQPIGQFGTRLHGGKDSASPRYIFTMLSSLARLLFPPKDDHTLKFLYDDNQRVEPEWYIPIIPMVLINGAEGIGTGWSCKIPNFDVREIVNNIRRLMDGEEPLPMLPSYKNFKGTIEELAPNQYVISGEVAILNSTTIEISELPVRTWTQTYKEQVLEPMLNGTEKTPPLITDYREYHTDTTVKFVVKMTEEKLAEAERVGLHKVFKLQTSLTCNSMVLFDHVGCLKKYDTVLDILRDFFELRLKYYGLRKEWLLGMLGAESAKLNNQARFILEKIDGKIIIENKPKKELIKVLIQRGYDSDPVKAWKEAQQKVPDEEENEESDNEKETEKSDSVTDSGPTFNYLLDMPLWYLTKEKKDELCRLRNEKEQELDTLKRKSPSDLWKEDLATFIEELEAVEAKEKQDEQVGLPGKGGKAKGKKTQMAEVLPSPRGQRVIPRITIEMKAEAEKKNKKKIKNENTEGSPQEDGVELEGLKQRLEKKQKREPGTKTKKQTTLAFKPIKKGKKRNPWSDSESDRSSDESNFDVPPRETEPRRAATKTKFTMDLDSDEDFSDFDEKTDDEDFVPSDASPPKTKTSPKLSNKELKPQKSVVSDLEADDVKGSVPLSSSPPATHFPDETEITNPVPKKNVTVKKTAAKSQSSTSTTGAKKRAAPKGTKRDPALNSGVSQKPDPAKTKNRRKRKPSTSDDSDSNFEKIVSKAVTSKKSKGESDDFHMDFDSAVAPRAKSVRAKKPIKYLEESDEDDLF

CC(=O)[C@@]1(C)CC[C@H]2[C@@](C)(CC[C@@]3(C)[C@@H]4CC(C)(C)CC[C@]4(C)CC[C@]23C)[C@@H]1CC(=O)O
active: [1] Dose-dependent effect | [2] | [3] | [4]

C[C@@H](C(=O)O)[C@@]1(C)CC[C@H]2[C@@](C)(CC[C@@]3(C)[C@@H]4CC(C)(C)CC[C@]4(C)CC[C@]23C)[C@@H]1CC(=O)O
active: [1] Dose-dependent effect | [2] | [3] | [4]
